The source made the active and inactive calls. The calls are words filed in the database; no cut-off is given here.
Assays:
SW-620 [1] = test: Induction of apoptosis in human SW620 cells assessed as early apoptotic cells at 1.48 uM after 24 hrs by annexin V/propidium iodide staining-based flow cytometric analysis (reference value: 0.36%); format: functional
SW-620 [2] = test: Induction of cell cycle arrest in human SW620 cells assessed as accumulation at G0/G1 phase at 5.92 uM after 24 hrs by propidium iodide staining-based flow cytometric analysis (reference value: 56.11%); format: functional
SW-620 [3] = test: Induction of apoptosis in human SW620 cells assessed as late apoptotic cells at 2.96 uM after 24 hrs by annexin V/propidium iodide staining-based flow cytometric analysis (reference value: 2.40%); format: functional
[4] = Inhibition of PI3K/Akt/mTOR signalling pathway in human SW620 cells assessed as reduction in mTOR phosphorylation at 0.74 to 11.84 uM after 24 hrs by Western blot analysis; format: cell-based; conditions: SW-620
SW-620 [5] = test: Induction of apoptosis in human SW620 cells assessed as viable cells at 0.74 uM after 24 hrs by annexin V/propidium iodide staining-based flow cytometric analysis (reference value: 96.9%); format: functional; conditions: SW-620, 24 h, read-out: Activity
SW-620 [6] = test: Induction of apoptosis in human SW620 cells assessed as late apoptotic cells at 0.74 uM after 24 hrs by annexin V/propidium iodide staining-based flow cytometric analysis (reference value: 2.40%); format: functional
SW-620 [7] = test: Induction of cell cycle arrest in human SW620 cells assessed as accumulation at G2/M phase at 2.96 uM after 24 hrs by propidium iodide staining-based flow cytometric analysis (reference value: 20.06%); format: functional
SW-620 [8] = test: Induction of apoptosis in human SW620 cells assessed as increase in cleaved PARP at 0.74 to 11.84 uM after 24 hrs by Western blot analysis; format: functional, cell-based
SW-620 [9] = test: Induction of apoptosis in human SW620 cells assessed as necrotic cells at 11.84 uM after 24 hrs by annexin V/propidium iodide staining-based flow cytometric analysis (reference value: 0.30%); format: functional
SW-620 [10] = test: Induction of apoptosis in human SW620 cells assessed as early apoptotic cells at 5.92 uM after 24 hrs by annexin V/propidium iodide staining-based flow cytometric analysis (reference value: 0.36%); format: functional
SW-620 [11] = test: Induction of cell cycle arrest in human SW620 cells assessed as accumulation at G2/M phase at 0.74 uM after 24 hrs by propidium iodide staining-based flow cytometric analysis (reference value: 20.06%); format: functional
SW-620 [12] = test: Induction of apoptosis in human SW620 cells assessed as viable cells at 5.92 uM after 24 hrs by annexin V/propidium iodide staining-based flow cytometric analysis (reference value: 96.9%); format: functional; conditions: SW-620, 24 h, read-out: Activity
SW-620 [13] = test: Induction of apoptosis in human SW620 cells assessed as viable cells at 11.84 uM after 24 hrs by annexin V/propidium iodide staining-based flow cytometric analysis (reference value: 96.9%); format: functional; conditions: SW-620, 24 h, read-out: Activity
SW-620 [14] = test: Induction of cell cycle arrest in human SW620 cells assessed as accumulation at S phase at 0.74 uM after 24 hrs by propidium iodide staining-based flow cytometric analysis (reference value: 23.83%); format: functional
SW-620 [15] = test: Induction of cell cycle arrest in human SW620 cells assessed as accumulation at G2/M phase at 11.84 uM after 24 hrs by propidium iodide staining-based flow cytometric analysis (reference value: 20.06%); format: functional
SW-620 [16] = test: Induction of cell cycle arrest in human SW620 cells assessed as accumulation at G0/G1 phase at 1.48 uM after 24 hrs by propidium iodide staining-based flow cytometric analysis (reference value: 56.11%); format: functional
SW-620 [17] = test: Induction of cell cycle arrest in human SW620 cells assessed as accumulation at S phase at 1.48 uM after 24 hrs by propidium iodide staining-based flow cytometric analysis (reference value: 23.83%); format: functional
SW-620 [18] = test: Induction of apoptosis in human SW620 cells assessed as early apoptotic cells at 0.74 uM after 24 hrs by annexin V/propidium iodide staining-based flow cytometric analysis (reference value: 0.36%); format: functional
SW-620 [19] = test: Induction of apoptosis in human SW620 cells assessed as early apoptotic cells at 11.84 uM after 24 hrs by annexin V/propidium iodide staining-based flow cytometric analysis (reference value: 0.36%); format: functional
SW-620 [20] = test: Induction of cell cycle arrest in human SW620 cells assessed as accumulation at G0/G1 phase at 11.84 uM after 24 hrs by propidium iodide staining-based flow cytometric analysis (reference value: 56.11%); format: functional
SW-620 [21] = test: Induction of apoptosis in human SW620 cells assessed as early apoptotic cells at 2.96 uM after 24 hrs by annexin V/propidium iodide staining-based flow cytometric analysis (reference value: 0.36%); format: functional
SW-620 [22] = test: Induction of apoptosis in human SW620 cells assessed as increase in cleaved caspase-3 at 0.74 to 11.84 uM after 24 hrs by Western blot analysis; format: functional, cell-based
SW-620 [23] = test: Induction of apoptosis in human SW620 cells assessed as viable cells at 1.48 uM after 24 hrs by annexin V/propidium iodide staining-based flow cytometric analysis (reference value: 96.9%); format: functional; conditions: SW-620, 24 h, read-out: Activity
SW-620 [24] = test: Induction of apoptosis in human SW620 cells assessed as necrotic cells at 2.96 uM after 24 hrs by annexin V/propidium iodide staining-based flow cytometric analysis (reference value: 0.30%); format: functional
SW-620 [25] = test: Induction of cell cycle arrest in human SW620 cells assessed as accumulation at S phase at 5.92 uM after 24 hrs by propidium iodide staining-based flow cytometric analysis (reference value: 23.83%); format: functional
SW-620 [26] = test: Induction of cell cycle arrest in human SW620 cells assessed as accumulation at G2/M phase at 1.48 uM after 24 hrs by propidium iodide staining-based flow cytometric analysis (reference value: 20.06%); format: functional
SW-620 [27] = test: Induction of cell cycle arrest in human SW620 cells assessed as accumulation at G2/M phase at 5.92 uM after 24 hrs by propidium iodide staining-based flow cytometric analysis (reference value: 20.06%); format: functional
SW-620 [28] = test: Induction of morphological changes in human SW620 cells assessed as nuclear condensation at […] to 1.48 uM after 24 hrs by acridine orange/propidium iodide staining based microscopic analysis; format: functional, cell-based
RKO = test: Cytotoxicity against human RKO cells after 24 hrs by MTT assay; format: functional, cell-based
SW-620 [29] = test: Induction of apoptosis in human SW620 cells assessed as necrotic cells at 1.48 uM after 24 hrs by annexin V/propidium iodide staining-based flow cytometric analysis (reference value: 0.30%); format: functional
SW-620 [30] = test: Induction of apoptosis in human SW620 cells assessed as viable cells at 2.96 uM after 24 hrs by annexin V/propidium iodide staining-based flow cytometric analysis (reference value: 96.9%); format: functional; conditions: SW-620, 24 h, read-out: Activity
SW-620 [31] = test: Induction of morphological changes in human SW620 cells assessed as appearance of apoptotic bodies at 2.96 to 5.92 uM after 24 hrs by acridine orange/propidium iodide staining based microscopic analysis; format: functional, cell-based
SW-620 [32] = test: Induction of apoptosis in human SW620 cells assessed as late apoptotic cells at 1.48 uM after 24 hrs by annexin V/propidium iodide staining-based flow cytometric analysis (reference value: 2.40%); format: functional
SW-620 [33] = test: Effect on AKT expression in human SW620 cells at 0.74 to 11.84 uM after 24 hrs by Western blot analysis; format: cell-based; conditions: sw-620, 24 h

C=C(C)[C@@]12O[C@@]3(/C=C/C=C/CCCCC)O[C@@H]1[C@@H]1[C@H](O)[C@@](O)(CO)[C@@H](O)[C@]4(O)C(=O)C(C)=C[C@H]4[C@@]1(O3)[C@H](C)[C@H]2OC(=O)c1ccccc1
Activity (SW-620 [1]): 5.64%
Activity (SW-620 [2]): 84.75%
Activity (SW-620 [3]): 49.4%
inhibition [4]: Active
viability at 0.74 µM (SW-620 [5]): 80.8%
Activity (SW-620 [6]): 15.9%
Activity (SW-620 [7]): 5.17%
Activity (SW-620 [8]): Active
Activity (SW-620 [9]): 1.64%
Activity (SW-620 [10]): 4.67%
Activity (SW-620 [11]): 8.83%
viability at 5.92 µM (SW-620 [12]): 36.6%
viability at 11.84 µM (SW-620 [13]): 1.33%
Activity (SW-620 [14]): 14.24%
Activity (SW-620 [15]): 2.43%
Activity (SW-620 [16]): 78.73%
Activity (SW-620 [17]): 14.19%
Activity (SW-620 [18]): 3.24%
Activity (SW-620 [19]): 10.7%
Activity (SW-620 [20]): 88.08%
Activity (SW-620 [21]): 6.18%
Activity (SW-620 [22]): Active
viability at 1.48 µM (SW-620 [23]): 45.4%
Activity (SW-620 [24]): 0.33%
Activity (SW-620 [25]): 11.73%
Activity (SW-620 [26]): 7.08%
Activity (SW-620 [27]): 3.52%
Activity (SW-620 [28]): Active
IC50 (RKO): 6.5 µM
Activity (SW-620 [29]): 0.43%
viability at 2.96 µM (SW-620 [30]): 44.1%
Activity (SW-620 [31]): Active
Activity (SW-620 [32]): 48.5%
Activity (SW-620 [33]): Non-Toxic

Reference: ChEMBL document CHEMBL4610097, “Daphnane Diterpenoids from Daphne genkwa Inhibit PI3K/Akt/mTOR Signaling and Induce Cell Cycle Arrest and Apoptosis in Human Colon Cancer Cells” (J Nat Prod, 2020)
